The source made the active and inactive calls. The calls are words filed in the database; no cut-off is given here.
Legend:
[1] = (§1) Cytotoxicity against human thyroid carcinoma cells assessed as mortality; format: functional
Homo sapiens = species on record: Homo sapiens; assay: as §1; format: functional

Row | Compound | Activity [1] [%] | Activity (Homo sapiens)
1 | CC1(C)CCC[C@]2(C)[C@H]3CC(=O)[C@]4(C)[C@@H]5C(=CC[C@H]4[C@]3(C)CC[C@@H]12)CO[C@H]5O | 25 | –
2 | CC(=O)O[C@@H]1OC=C2[C@@H](OC(C)=O)C[C@H]3[C@]4(C)CC[C@H]5C(C)(C)CCC[C@]5(C)[C@H]4C[C@@H](O)[C@]3(C)[C@H]21 [HETERONEMIN] | 30 | –
3 | CC1(C)CCC[C@]2(C)[C@H]3C[C@@H](O)[C@]4(C)[C@@H]5C(=CC[C@H]4[C@]3(C)CC[C@@H]12)CO[C@H]5O | – | inactive

From ChEMBL document CHEMBL1144122, “New scalaranes from the nudibranch Glossodoris atromarginata and its sponge prey” (1999)
